The compounds below were run against T1, human ACC2 (Homo sapiens, UniProt O00763) (assay: ACC2 assay, spectrophotometric 384 well assay (NADH-linked, coupled lactate dehydrogenase/pyruvate kinase)). Details: ACC2 assay, hACC2 construct lacking 128 N-terminal amino acids, 25° C., 340 nm; read-out: IC50.
T1 construct: made in house; host or cells: insect cells (baculoviral expression system)
T1 sequence (O00763 129-2458 limits assumed): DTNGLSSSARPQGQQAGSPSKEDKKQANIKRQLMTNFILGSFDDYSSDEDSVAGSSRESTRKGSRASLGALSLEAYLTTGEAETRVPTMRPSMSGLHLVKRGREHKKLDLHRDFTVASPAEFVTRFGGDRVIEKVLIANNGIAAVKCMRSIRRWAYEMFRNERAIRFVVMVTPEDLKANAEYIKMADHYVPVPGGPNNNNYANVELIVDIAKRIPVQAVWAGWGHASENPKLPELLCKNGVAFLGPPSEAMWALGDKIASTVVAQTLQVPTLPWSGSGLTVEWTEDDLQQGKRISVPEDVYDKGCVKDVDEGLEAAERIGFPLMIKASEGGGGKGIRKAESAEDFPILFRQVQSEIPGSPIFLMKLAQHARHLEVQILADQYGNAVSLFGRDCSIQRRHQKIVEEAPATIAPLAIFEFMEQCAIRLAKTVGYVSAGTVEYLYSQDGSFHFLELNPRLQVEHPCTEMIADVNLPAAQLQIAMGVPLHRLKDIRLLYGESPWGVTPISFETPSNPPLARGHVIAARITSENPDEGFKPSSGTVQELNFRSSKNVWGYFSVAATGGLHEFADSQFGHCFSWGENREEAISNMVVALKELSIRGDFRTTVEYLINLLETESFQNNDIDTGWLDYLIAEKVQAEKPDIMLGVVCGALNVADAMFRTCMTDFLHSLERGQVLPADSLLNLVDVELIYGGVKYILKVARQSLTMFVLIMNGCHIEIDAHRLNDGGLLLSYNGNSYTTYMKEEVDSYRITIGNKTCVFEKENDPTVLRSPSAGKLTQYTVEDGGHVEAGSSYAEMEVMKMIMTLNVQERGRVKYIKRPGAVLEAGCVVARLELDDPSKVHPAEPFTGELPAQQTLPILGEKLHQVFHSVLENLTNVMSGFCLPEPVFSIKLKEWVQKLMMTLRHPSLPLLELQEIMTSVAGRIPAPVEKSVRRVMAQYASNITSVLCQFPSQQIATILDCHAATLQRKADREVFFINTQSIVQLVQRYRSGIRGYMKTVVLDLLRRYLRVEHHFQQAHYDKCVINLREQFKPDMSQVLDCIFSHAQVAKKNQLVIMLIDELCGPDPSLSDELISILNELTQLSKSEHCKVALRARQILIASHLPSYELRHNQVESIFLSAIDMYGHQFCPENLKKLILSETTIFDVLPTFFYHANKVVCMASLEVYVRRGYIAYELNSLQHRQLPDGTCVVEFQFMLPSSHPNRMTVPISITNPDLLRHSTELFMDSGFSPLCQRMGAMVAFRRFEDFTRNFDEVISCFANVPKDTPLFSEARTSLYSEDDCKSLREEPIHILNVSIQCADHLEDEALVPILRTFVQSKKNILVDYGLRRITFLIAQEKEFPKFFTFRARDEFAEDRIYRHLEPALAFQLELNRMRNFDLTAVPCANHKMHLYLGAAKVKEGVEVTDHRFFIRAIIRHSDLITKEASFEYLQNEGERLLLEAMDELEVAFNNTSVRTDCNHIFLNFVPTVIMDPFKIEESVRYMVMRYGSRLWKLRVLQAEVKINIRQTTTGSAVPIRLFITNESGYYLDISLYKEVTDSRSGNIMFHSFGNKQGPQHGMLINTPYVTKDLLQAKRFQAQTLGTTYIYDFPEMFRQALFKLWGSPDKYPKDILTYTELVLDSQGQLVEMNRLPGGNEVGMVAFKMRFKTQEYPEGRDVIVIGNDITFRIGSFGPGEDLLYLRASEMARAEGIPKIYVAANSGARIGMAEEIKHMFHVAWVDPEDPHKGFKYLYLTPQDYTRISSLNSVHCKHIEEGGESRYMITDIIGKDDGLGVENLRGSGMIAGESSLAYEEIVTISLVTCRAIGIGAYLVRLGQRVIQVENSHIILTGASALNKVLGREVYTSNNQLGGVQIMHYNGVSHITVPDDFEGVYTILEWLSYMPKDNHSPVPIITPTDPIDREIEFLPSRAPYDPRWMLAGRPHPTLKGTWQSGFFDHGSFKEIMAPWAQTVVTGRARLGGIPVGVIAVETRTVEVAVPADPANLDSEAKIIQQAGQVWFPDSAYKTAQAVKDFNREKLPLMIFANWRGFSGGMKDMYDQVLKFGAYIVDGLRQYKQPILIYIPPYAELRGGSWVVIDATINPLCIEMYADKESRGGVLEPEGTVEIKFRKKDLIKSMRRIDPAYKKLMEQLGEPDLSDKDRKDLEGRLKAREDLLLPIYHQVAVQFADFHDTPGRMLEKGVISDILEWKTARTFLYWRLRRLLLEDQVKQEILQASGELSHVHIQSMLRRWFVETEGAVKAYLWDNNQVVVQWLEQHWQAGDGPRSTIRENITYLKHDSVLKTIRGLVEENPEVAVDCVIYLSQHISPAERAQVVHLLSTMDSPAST
Format: biochemical
Experimental: Spectrophotometric 384 Well Assay
Malonyl CoA formation by acetyl CoA carboxylases is stoichometrically linked to the consumption of ATP. ACC2 activity is measured in a NADH-linked kinetic method measuring ADP generated during the ACC reaction using a coupled lactate dehydrogenase/pyruvate kinase reaction.
For biological testing, a human ACC2 construct which lacks the 128 amino acids at the N-terminus for increased solubility (nt 385-6966 in Genbank entry AJ575592) is cloned. The protein is then expressed in insect cells using a baculoviral expression system. Protein purification is performed by anion exchange.
All compounds are dissolved in dimethyl sulfoxide (DMSO) to a concentration of 10 mM.
Assay reactions are then carried out in 384-well plates, with hACC2 in an appropriate dilution and at final assay concentrations (f.c.) of 100 mM Tris (pH 7.5), 10 mM trisodium citrate, 25 mM KHCO3, 10 mM MgCl2, 0.5 mg/mL BSA, 3.75 mM reduced L-glutathione, 15 U/mL lactate dehydrogenase, 0.5 mM phosphoenolpyruvate, 15 U/mL pyruvate kinase, compounds at different concentrations at final DMSO concentrations of 1%.
The enzymatic reaction is then started by addition of a mixture of NADH, acetyl Coenzyme A (both 200 μM f.c.) and ATP (500 uM f.c.). The decrease of the optical density (slope S) is then determined at 25° C. at a wavelength of 340 nm over 15 minutes in a spectrophotometric reader.
Each assay microtiter plate contains wells with vehicle instead of compound as controls for the non-inhibited enzyme (100% CTL; ‘HIGH’) and wells without acetyl-CoA as controls for non-specific NADH degradation (0% CTL; ‘LOW’).
The slope S is used for calculation of % CTL=(S(compound)−S('LOW'))/(S('HIGH')−S('LOW'))*100. Compounds will give values between 100% CTL (no inhibition) and 0% CTL (complete inhibition).
For IC50 value determination, the sample slope in the presence of the test compound after subtraction of the low controls (S(compound)−S('LOW')) are used.
An IC50 value is derived from the compound slopes at different dosages after subtraction of the low controls (S(compound)−S('LOW')) by non-linear regression curve fitting (equation y=(A+((B−A)/(1+((C/x)^D))))).
Work on `CCOc1ccc(N2CCC(c3ccc([C@H](C)NC(C)=O)cc3)CC2)cc1` [Example 1.1, (S)—N-(1-{4-[1-(4-Ethoxy-phenyl)-piperidin-4-yl]-phenyl}-ethyl)-acetamide] yielded an IC50 of 0.13 µM.
In the case of `CC(=O)N[C@@H](C)c1ccc(C2CCN(c3ccc(OC4CCCC4)cc3)CC2)cc1` [Example 1.2], the IC50 is reported as 0.05 µM.
`CCCCOc1ccc(N2CCC(c3ccc([C@H](C)NC(C)=O)cc3)CC2)cc1` [Example 1.3] was tested, and the IC50 was 0.09 µM.
In the case of `CCOc1ccc(N2CCC(c3ccc([C@H](C)NC(C)=O)cc3)CC2)cn1` [Example 1.4], the IC50 is reported as 0.32 µM.
Work on `CCOc1ccc(N2CCC(c3ccc([C@H](C)NC(=O)OC)cc3)CC2)cc1` [Example 1.5] yielded an IC50 of 0.35 µM.
`CCC(C)Oc1ccc(N2CCC(c3ccc([C@H](C)NC(=O)N(C)C)cc3)CC2)cc1` (some centres unmarked) [Example 1.7] showed an IC50 of 0.14 µM.
`CCCOc1ccc(N2CCC(c3ccc([C@H](C)NC(=O)N(C)C)cc3)CC2)cc1` [Example 1.8] showed an IC50 of 0.12 µM.
Compound `C[C@H](NC(=O)C1CC1)c1ccc(C2CCN(c3ccc(OC4CCC4)cc3)CC2)cc1` [Example 1.9] has an IC50 of 0.05 µM.
`CCC(C)Oc1ccc(N2CCC(c3ccc([C@H](C)NC(=O)C4CC4)cc3)CC2)cc1` (some centres unmarked) [Example 1.10] was tested, and the IC50 was 0.22 µM.
Compound `CCOc1cc(N2CCC(c3ccc([C@H](C)NC(=O)OC)cc3)CC2)ccn1` [Example 1.11] has an IC50 of 0.3 µM.
With `COC(=O)N[C@@H](C)c1ccc(C2CCN(c3ccc(OC4CCC4)cc3)CC2)cc1` [Example 1.12] the IC50 was 0.08 µM.
With `CCCOc1ccc(N2CCC(c3ccc([C@H](C)NC(=O)OC)cc3)CC2)cc1` [Example 1.13] the IC50 was 0.1 µM.
`C[C@H](NC(=O)C1CC1)c1ccc(C2CCN(c3ccc(OC4CC4)cc3)CC2)cc1` [Example 1.14] showed an IC50 of 0.1 µM.
`CCC(C)Oc1ccc(N2CCC(c3ccc([C@H](C)NC(=O)OC)cc3)CC2)cc1` (some centres unmarked) [Example 1.15] gave an IC50 of 0.24 µM.
With `C[C@H](NC(=O)C1CC1)c1ccc(C2CCN(c3ccc(OCC4CC4)cc3)CC2)cc1` [Example 1.16] the IC50 was 0.09 µM.
With `COC(=O)N[C@@H](C)c1ccc(C2CCN(c3ccc4c(c3)OCCO4)CC2)cc1` [Example 1.17] the IC50 was 0.45 µM.
Work on `C[C@H](NC(=O)C1CC1)c1ccc(C2CCN(c3ccc4c(c3)OCCO4)CC2)cc1` [Example 1.19] yielded an IC50 of 0.26 µM.
`CCOc1cc(N2CCC(c3ccc([C@H](C)NC(=O)C4CC4)cc3)CC2)ccn1` [Example 1.20] showed an IC50 of 0.29 µM.
Compound `C[C@H](NC(=O)N(C)C)c1ccc(C2CCN(c3ccc(OC4CCC4)cc3)CC2)cc1` [Example 1.21] has an IC50 of 0.08 µM.
`COC(=O)N[C@@H](C)c1ccc(C2CCN(c3ccc(OCC4CC4)cc3)CC2)cc1` [Example 1.22] showed an IC50 of 0.14 µM.
In the case of `CCCOc1ccc(N2CCC(c3ccc([C@H](C)NC(=O)C4CC4)cc3)CC2)cc1` [Example 1.23], the IC50 is reported as 0.05 µM.
For `C[C@H](NC(=O)N(C)C)c1ccc(C2CCN(c3ccc(OCC4CC4)cc3)CC2)cc1` [Example 1.24], the IC50 was 0.21 µM.
Work on `CCOc1ccc(N2CCC(c3ccc([C@H](C)NC(=O)C4CC4)cc3)CC2)cc1` [Example 1.25] yielded an IC50 of 0.15 µM.
`CC(=O)N[C@@H](C)c1ccc(C2CCN(c3cccc(O)c3)CC2)cc1` [Example 1.27, (S)—N-{1-(4-[1-(3-hydroxyphenyl)-piperidin-4-yl]-phenyl}-ethyl)-acetamide] showed an IC50 of 5.8 µM.
Compound `CCC(C)Oc1ccc(N2CCC(c3ccc([C@H](C)NC(C)=O)cc3)CC2)cc1` (some centres unmarked) [Example 1.29] has an IC50 of 0.08 µM.
`COc1ccc(N2CCC(c3ccc([C@H](C)NC(C)=O)cc3)CC2)cc1` [Example 1.30] showed an IC50 of 0.23 µM.
`CCCOc1ccc(N2CCC(c3ccc([C@H](C)NC(C)=O)cc3)CC2)c(OC)c1` [Example 1.31] showed an IC50 of 0.18 µM.
For `CCCOc1ccc(N2CCC(c3ccc([C@H](C)NC(C)=O)cc3)CC2)c(C)c1` [Example 1.32], the IC50 was 0.09 µM.
With `CCCOc1ccc(N2CCC(c3ccc([C@H](C)NC(C)=O)cc3)CC2)c(Cl)c1` [Example 1.33] the IC50 was 0.12 µM.
Work on `COc1ccc(N2CCC(c3ccc([C@H](C)NC(C)=O)cc3)CC2)c(C#N)c1` [Example 1.34] yielded an IC50 of 0.26 µM.
Compound `COc1cc(OC(C)C)ccc1N1CCC(c2ccc([C@H](C)NC(C)=O)cc2)CC1` [Example 1.35] has an IC50 of 0.32 µM.
Work on `COc1cc(OCC2CC2)ccc1N1CCC(c2ccc([C@H](C)NC(C)=O)cc2)CC1` [Example 1.36] yielded an IC50 of 0.41 µM.
With `COc1cc(OC2CCC2)ccc1N1CCC(c2ccc([C@H](C)NC(C)=O)cc2)CC1` [Example 1.37] the IC50 was 0.11 µM.
Work on `CCC(C)Oc1ccc(N2CCC(c3ccc([C@H](C)NC(C)=O)cc3)CC2)c(OC)c1` (some centres unmarked) [Example 1.39] yielded an IC50 of 0.13 µM.
Compound `CC(=O)N[C@@H](C)c1ccc(C2CCN(c3ccc4c(c3)OCCO4)CC2)cc1` [Example 1.40] has an IC50 of 0.14 µM.
For `COc1ccc(N2CCC(c3ccc([C@H](C)NC(C)=O)cc3)CC2)c(OC)c1` [Example 1.41], the IC50 was 0.32 µM.
Work on `CCOc1ccc(N2CCC(c3ccc([C@H](C)NC(C)=O)cc3)CC2)c(OCC)c1` [Example 1.42] yielded an IC50 of 0.63 µM.
In the case of `COc1ccc(N2CCC(c3ccc([C@H](C)NC(C)=O)cc3)CC2)cc1OC` [Example 1.43], the IC50 is reported as 4.1 µM.
In the case of `CC(=O)N[C@@H](C)c1ccc(C2CCN(c3ccc4c(c3)OCCCO4)CC2)cc1` [Example 1.44], the IC50 is reported as 0.18 µM.
In the case of `CC(=O)N[C@@H](C)c1ccc(C2CCN(c3ccccc3)CC2)cc1` [Example 1.45], the IC50 is reported as 0.37 µM.
`CC(=O)N[C@@H](C)c1ccc(C2CCN(c3ccc(Cl)cc3)CC2)cc1` [Example 1.46] showed an IC50 of 0.7 µM.
With `CCOc1ccc(N2CCC(c3ccc([C@H](C)NC(C)=O)cc3)CC2)cc1OCC` [Example 1.47] the IC50 was 2.9 µM.
With `CC(=O)N[C@@H](C)c1ccc(C2CCN(c3ccc(O)cc3)CC2)cc1` [Example 1.48, (S)—N-{1-(4-[1-(4-Hydroxyphenyl)-piperidin-4-yl]-phenyl}-ethyl)-acetamide] the IC50 was 11.3 µM.
In the case of `CC(=O)N[C@@H](C)c1ccc(C2CCN(c3ccc(OC(C)C)cc3C#N)CC2)cc1` [Example 1.50], the IC50 is reported as 0.12 µM.
`CC(=O)N[C@@H](C)c1ccc(C2CCN(c3ccc(OC4CCC4)cc3C#N)CC2)cc1` [Example 1.51] gave an IC50 of 0.09 µM.
With `CC(=O)N[C@@H](C)c1ccc(C2CCN(c3ccc(C(C)C)cc3)CC2)cc1` [Example 1.52] the IC50 was 0.11 µM.
`COc1ccc(N2CCC(c3ccc([C@H](C)NC(C)=O)cc3)CC2)cn1` [Example 1.53] was tested, and the IC50 was 0.82 µM.
For `CC(=O)N[C@@H](C)c1ccc(C2CCN(c3ccc(OCc4ccccc4)nc3)CC2)cc1` [Example 1.54], the IC50 was 0.13 µM.
Compound `CCCOc1ccc(N2CCC(c3ccc([C@H](C)NC(C)=O)cc3)CC2)cn1` [Example 1.55] has an IC50 of 0.24 µM.
`COc1cc(C)c(N2CCC(c3ccc([C@H](C)NC(C)=O)cc3)CC2)cn1` [Example 1.56] gave an IC50 of 0.72 µM.
`Cc1cc(OC2CC2)ccc1N1CCC(c2ccc([C@H](C)NC(=O)N(C)C)cc2)CC1` [Example 1.57] gave an IC50 of 0.1 µM.
For `C[C@H](NC(=O)N(C)C)c1ccc(C2CCN(c3ccc4c(c3)OCC(C)(C)CO4)CC2)cc1` [Example 1.58], the IC50 was 0.12 µM.
Work on `CC(=O)N[C@@H](C)c1ccc(C2CCN(c3ccc(OCC4CC4)nc3)CC2)cc1` [Example 1.59] yielded an IC50 of 0.14 µM.
Compound `CC(=O)N[C@@H](C)c1ccc(C2CCN(c3ccc(OC(C)C)nc3)CC2)cc1` [Example 1.60] has an IC50 of 0.18 µM.
`CC(=O)N[C@@H](C)c1ccc(C2CCN(c3ccc4c(c3)OCC(C)(C)CO4)CC2)cc1` [Example 1.61] gave an IC50 of 0.21 µM.
`CC(=O)N[C@@H](C)c1ccc(C2CCN(c3ccc(OC4CCC4)nc3)CC2)cc1` [Example 1.62] was tested, and the IC50 was 0.2 µM.
`CC(=O)N[C@@H](C)c1ccc(C2CCN(c3ccc(O[C@@H]4CCOC4)cc3F)CC2)cc1` [Example 1.63] showed an IC50 of 1.3 µM.
`CCCOc1ccc(N2CCC(c3ccc([C@H](C)NC(C)=O)cc3)CC2)c(F)c1` [Example 1.64] showed an IC50 of 0.07 µM.
In the case of `CC(=O)N[C@@H](C)c1ccc(C2CCN(c3ccc(O)cc3F)CC2)cc1` [Example 1.65], the IC50 is reported as 20 µM.
In the case of `CC(=O)N[C@@H](C)c1ccc(C2CCN(c3ccc4nc(C)sc4c3)CC2)cc1` [Example 1.66], the IC50 is reported as 0.42 µM.
For `CC(=O)N[C@@H](C)c1ccc(C2CCN(c3ccc4c(c3)OCO4)CC2)cc1` [Example 1.67], the IC50 was 0.36 µM.
`CC(=O)N[C@@H](C)c1ccc(C2CCN(c3ccc4oc(=O)[nH]c4c3)CC2)cc1` [Example 1.68] showed an IC50 of 23.9 µM.
`CC(=O)N[C@@H](C)c1ccc(C2CCN(c3ccc4sccc4c3)CC2)cc1` [Example 1.69] was tested, and the IC50 was 4 µM.
`CC(=O)N[C@@H](C)c1ccc(C2CCN(c3ccc4nc(C)n(C)c4c3)CC2)cc1` [Example 1.70] gave an IC50 of 7.4 µM.
Compound `CC(=O)N[C@@H](C)c1ccc(C2CCN(c3ccc4oc(-c5ccccc5)nc4c3)CC2)cc1` [Example 1.71] has an IC50 of 0.08 µM.
